Calls of active or inactive are those of the source.
How the values were obtained:
Kallikrein-7 = Kallikrein-7 (Homo sapiens, UniProt P49862); experiment: Fluorescence Intensity-based biochemical primary high throughput dose response assay to identify activators of kallikrein-7 (K7) zymogen.
[1] = optical artefact potency, substrate without enzyme – biochemical, fluorescence intensity, triplicate, artefact control for kallikrein-7 zymogen activator project, dose response (AID 720493)
[2] = target: T1, Calpain-2 catalytic subunit (Sus scrofa, UniProt P43367); experiment: m-calpain protease blockers, concentration series – biochemical, fluorogenic peptide substrate, dose response (AID 1420); assay type: functional
T1 sequence (P43367 whole entry): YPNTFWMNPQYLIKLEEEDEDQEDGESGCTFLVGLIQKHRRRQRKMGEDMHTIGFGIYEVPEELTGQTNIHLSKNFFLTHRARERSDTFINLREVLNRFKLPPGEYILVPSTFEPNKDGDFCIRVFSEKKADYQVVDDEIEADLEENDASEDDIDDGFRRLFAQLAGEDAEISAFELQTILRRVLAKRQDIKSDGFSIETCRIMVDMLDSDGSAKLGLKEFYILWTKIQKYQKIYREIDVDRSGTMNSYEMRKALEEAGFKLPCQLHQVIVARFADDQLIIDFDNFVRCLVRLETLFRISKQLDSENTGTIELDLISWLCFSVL

[3] = A549 lung cell viability reduction – CellTiter-Glo luminescence, cherry-pick, cytotoxicity control, dose response (AID 743484); assay type: functional, cell-based
[4] = HepG2 viability loss by ATP level – cell-based, CellTiter-Glo luminescence, cherry-pick, set 4, cytotoxicity control, dose response (AID 743480); assay type: functional
[5] = ATP-based viability loss in HEK293T cells – cell-based, CellTiter-Glo luminescence, cherry-picked samples, set 4, cytotoxicity control, dose response (AID 743441); assay type: functional; conditions: HEK293
Jurkat = experiment: blockers of NF-kB activation in T cells – Jurkat, luciferase reporter, luminescence, B- and T-cell, dose response (AID 489004); assay type: functional, cell-based; conditions: Homo sapiens;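 also: NF-kB luciferase reporter Jurkat cells stimulated with PMA plus ionomycin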
[6] = HEK-293T viability loss, compound-treated – cell-based, uHTS hits, cytotoxicity control for B/T-cell NF-kB inhibitor project, dose response (AID 489019); assay type: functional;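 also: IC50 reflects cytotoxicity as loss of cell viability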
[7] = blockers of HIV-1 envelope-mediated cell-cell fusion – cherry-pick, dose response (AID 652057); assay type: functional, cell-based
Galanin receptor type 3 = Galanin receptor type 3 (Homo sapiens, UniProt O60755); experiment: Fluorescence-based cell-based primary high throughput dose response assay to identify antagonists of the Galanin Receptor 3 (GalR3).; assay type: functional
cells [8] = assay type: functional, cell-based; conditions: HEK-CNG
[9] = blockers of HIV-1 ZM109 envelope-driven cell-cell fusion – HeLa effector, CEM target cells, luciferase, cherry-pick, dose response (AID 652058); assay type: functional, cell-based;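 also: luciferase signal from HIV-1 Env mediated cell-cell fusion of effector and target cells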
[10] = off-target signal loss in HeLa-CEM21 co-culture – HeLa F-luc CTL cells, cherry-picked, counter-screen for HIV-1 Env fusion inhibitor project, dose response (AID 652040); assay type: functional, cell-based;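 also: potency for signal decrease marking cytotoxic or nonspecific inhibition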
[11] = HIV-1 AD8 envelope cell-cell fusion blockers – cherry-pick, dose response (AID 652062); assay type: functional, cell-based;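 also: luciferase signal from cell-cell fusion driven by HIV-1 clade B AD8 Env; potency is for inhibitors of fusion seen as a drop in luminescence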
[12] = IC50 of Artemis nuclease activity blockers – biochemical, fluorescence intensity, dose response (AID 720701); assay type: functional;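 also: Artemis endonuclease enzyme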
INS1 = experiment: INS-1E survival protection against cytokine death – cell-based, luminescence, retest, dose response (AID 449756); assay type: functional; conditions: Rattus norvegicus;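 also: cell death triggered by IL-1 beta plus TNF-alpha plus IFN-gamma mixture; protective hits raise ATP signal compared with cytokine alone wells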
[13] = reduction of Shn3 3'UTR-driven luciferase in osteoblasts – cell-based, Clone20 osteoblasts, firefly luciferase, cherry-picked, dose response (AID 624132); assay type: functional;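 also: firefly luciferase luminescence from reporter carrying the Shn3 3'UTR in osteoblasts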
[14] = loss of viability in HepG2 cells – cell-based, CellTiter-Glo, cherry-picked, cytotoxicity control for Shn3 inhibitor project, dose response (AID 624134); assay type: functional
[15] = non-specific 3'UTR reporter inhibition in Clone20-Shn3RL – cell-based, Renilla luciferase, cherry-picked, counter-screen for Shn3 inhibitor project, dose response (AID 624133); assay type: functional
[16] = Shn3 3'UTR reporter signal decrease – cell-based, Clone20 osteoblasts, firefly luciferase, cherry-pick, set 2, Schnurri-3 inhibitor project, dose response (AID 720490); assay type: functional;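 also: actives lower the luminescence signal as inhibitors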
[17] = EF1alpha-driven Renilla reporter with control 3'UTR suppression – Clone20-Shn3RL cells, dual-Glo, cherry-pick, set 2, counter-screen for Shn3 3'UTR targeting project, dose response (AID 720724); assay type: functional, cell-based; conditions: Dual-Go Shn3RL
Cytochrome P450 3A4 = Cytochrome P450 3A4 (Homo sapiens, UniProt P08684);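 also: CYP3A4 tested as one member of a cytochrome P450 panel screen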
[18] = target: Luciferin 4-monooxygenase (Photinus pyralis, UniProt P08659); experiment: inhibition of purified Photinus pyralis luciferase – biochemical, luminescence, dose response (AID 1891)
[19] = Luminescence Cell-Based Dose Confirmation HTS to Identify Inhibitors of Platelet Dense Granule Release. [Related pubchem assays: 1663 (Primary HTS), 1678 (Summary of Project)]; assay type: functional
[20] = target: Dual specificity tyrosine-phosphorylation-regulated kinase 1A (Rattus norvegicus, UniProt Q63470); assay type: biochemical, Homo sapiens
cells [21] = assay type: functional, cell-based
[22] = target: T2, Trace amine-associated receptor 1 (Homo sapiens, UniProt Q96RJ0); experiment: Fluorescence-based cell-based high throughput dose response assay to identify agonists of the human trace amine associated receptor 1 (TAAR1).; assay type: functional
T2 sequence (Q96RJ0 whole entry): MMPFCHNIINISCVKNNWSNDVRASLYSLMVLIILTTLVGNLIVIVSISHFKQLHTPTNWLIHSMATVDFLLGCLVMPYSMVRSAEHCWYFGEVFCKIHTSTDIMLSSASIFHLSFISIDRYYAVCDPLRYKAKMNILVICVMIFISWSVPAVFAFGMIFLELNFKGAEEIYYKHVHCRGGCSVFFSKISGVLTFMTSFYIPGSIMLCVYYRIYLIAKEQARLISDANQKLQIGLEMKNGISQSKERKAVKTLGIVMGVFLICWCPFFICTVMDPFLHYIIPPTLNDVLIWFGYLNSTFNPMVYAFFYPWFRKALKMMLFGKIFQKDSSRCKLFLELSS

[23] = target: T2, Trace amine-associated receptor 1; experiment: Counterscreen for agonists of the human trace amine associated receptor 1 (hTAAR1): Fluorescence-based cell-based high throughput dose response assay to identify hTAAR1 agonist that also desensitize TAAR1 receptor response.; assay type: functional
cells [24] = assay type: functional, cell-based; remark: listed apart in the source
[25] = viability loss in HepG2 hepatoma cells – cell-based, ATP luminescence, cherry-pick, activator set 2, cytotoxicity control, dose response (AID 1053143); assay type: functional
cells [26] = assay type: functional, cell-based; remark: listed apart in the source
cells [27] = assay type: functional, cell-based; remark: listed apart in the source
[28] = viability loss in HEK293T cells – cell-based, cherry-picks, cytotoxicity control for HIV Vif inhibitor project, dose response (AID 652208); assay type: functional
Paired box protein Pax-8 = Paired box protein Pax-8 (Homo sapiens, UniProt Q06710); experiment: PAX8 transcriptional activity inhibition in RMG-I – RMG-I cells, luciferase, cherry-pick, dose response (AID 687027); assay type: functional, cell-based;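 also: luciferase reporter driven by Pax8 target thyroperoxidase promoter measured by SteadyGlo luminescence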
[29] = COV362 cell viability loss – plate reader, dry powder, SA12, cytotoxicity control for PAX8 inhibitor project, dose response (AID 743144); assay type: functional, cell-based
[30] = toxicity toward immortalized ovarian surface epithelium – cell-based, plate reader, dry powder samples, cytotoxicity control for PAX8 inhibitor project, dose response (AID 743045); assay type: functional
[31] = OVCAR-3 cell viability loss – plate reader, dry powder samples, PAX8 inhibitor project, dose response (AID 743044); assay type: functional, cell-based
[32] = IGROV1 cell killing – plate reader, dry powder samples, PAX8 inhibitor project, dose response (AID 743043); assay type: functional, cell-based; conditions: IGROV-1
[33] = OVCAR4 cell viability loss – plate reader, dry powder, SA11, cytotoxicity control for PAX8 inhibitor project, dose response (AID 743150); assay type: functional, cell-based; conditions: OVCAR-4
[34] = COV434 cell viability loss – plate reader, dry powder, SA7, cytotoxicity control for PAX8 inhibitor project, dose response (AID 743145); assay type: functional, cell-based
[35] = OV-90 cell viability loss – plate reader, dry powder, SA8, PAX8 inhibitor project, dose response (AID 743149); assay type: functional, cell-based
[36] = general cell-killing toxicity readout – plate reader, dry powder samples, cytotoxicity control for PAX8 inhibitor project, dose response (AID 743021); assay type: functional, cell-based
[37] = PAX8-dependent cell viability loss – plate reader, dry powder, dose response (AID 743049); assay type: functional, cell-based
cells [38] = conditions: A549
HeLa = experiment: viability loss in HeLa cells – cell-based, ATP luminescence, cherry-pick samples, cytotoxicity control, dose response (AID 687004); assay type: functional; conditions: Homo sapiens
HEK293 = experiment: viability loss in HEK293T cells – cell-based, ATP luminescence, cherry-pick samples, cytotoxicity control, dose response (AID 687005); assay type: functional; conditions: Homo sapiens;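 also: cells exposed to compound for 48 hours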
[39] = HEK293 Cytotoxicity Assay Measured in Cell-Based System Using Plate Reader - 7071-01_Inhibitor_Dose_CherryPick_Activity_Set2.; assay type: functional

Chain of Luciferin 4-monooxygenase (P08659 whole entry): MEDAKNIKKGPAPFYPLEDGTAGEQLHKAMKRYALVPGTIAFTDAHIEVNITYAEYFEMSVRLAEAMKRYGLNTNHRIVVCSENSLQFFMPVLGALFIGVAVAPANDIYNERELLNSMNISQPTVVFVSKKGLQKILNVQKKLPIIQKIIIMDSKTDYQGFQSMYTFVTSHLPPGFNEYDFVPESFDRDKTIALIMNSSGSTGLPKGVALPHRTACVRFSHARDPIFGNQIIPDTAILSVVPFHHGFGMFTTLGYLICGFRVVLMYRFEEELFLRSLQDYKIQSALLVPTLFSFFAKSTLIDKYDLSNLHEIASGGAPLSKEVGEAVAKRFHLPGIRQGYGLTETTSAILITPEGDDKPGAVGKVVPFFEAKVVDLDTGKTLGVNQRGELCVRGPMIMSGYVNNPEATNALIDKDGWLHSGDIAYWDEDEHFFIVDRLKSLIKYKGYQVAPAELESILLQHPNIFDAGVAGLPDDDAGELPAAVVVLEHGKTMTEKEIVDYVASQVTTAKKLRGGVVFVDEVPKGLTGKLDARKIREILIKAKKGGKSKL
Chain of Kallikrein-7 (P49862 whole entry): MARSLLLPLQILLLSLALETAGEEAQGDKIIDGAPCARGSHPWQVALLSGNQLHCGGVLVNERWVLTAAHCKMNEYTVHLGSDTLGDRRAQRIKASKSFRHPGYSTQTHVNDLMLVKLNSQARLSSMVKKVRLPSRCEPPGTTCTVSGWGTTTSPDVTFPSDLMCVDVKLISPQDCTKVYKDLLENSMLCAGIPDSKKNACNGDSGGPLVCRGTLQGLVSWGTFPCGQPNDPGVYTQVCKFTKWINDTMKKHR
Chain of Galanin receptor type 3 (O60755 whole entry): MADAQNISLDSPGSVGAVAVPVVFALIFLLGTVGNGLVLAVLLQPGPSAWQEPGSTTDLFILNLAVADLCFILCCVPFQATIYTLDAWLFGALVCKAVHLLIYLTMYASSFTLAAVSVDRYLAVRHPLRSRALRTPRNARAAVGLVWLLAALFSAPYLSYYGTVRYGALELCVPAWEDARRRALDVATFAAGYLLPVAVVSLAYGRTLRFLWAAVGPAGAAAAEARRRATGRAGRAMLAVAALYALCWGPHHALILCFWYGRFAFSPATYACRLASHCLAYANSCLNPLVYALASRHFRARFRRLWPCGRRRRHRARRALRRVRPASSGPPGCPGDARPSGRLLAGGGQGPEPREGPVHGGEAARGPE
Chain of Cytochrome P450 3A4 (P08684 whole entry): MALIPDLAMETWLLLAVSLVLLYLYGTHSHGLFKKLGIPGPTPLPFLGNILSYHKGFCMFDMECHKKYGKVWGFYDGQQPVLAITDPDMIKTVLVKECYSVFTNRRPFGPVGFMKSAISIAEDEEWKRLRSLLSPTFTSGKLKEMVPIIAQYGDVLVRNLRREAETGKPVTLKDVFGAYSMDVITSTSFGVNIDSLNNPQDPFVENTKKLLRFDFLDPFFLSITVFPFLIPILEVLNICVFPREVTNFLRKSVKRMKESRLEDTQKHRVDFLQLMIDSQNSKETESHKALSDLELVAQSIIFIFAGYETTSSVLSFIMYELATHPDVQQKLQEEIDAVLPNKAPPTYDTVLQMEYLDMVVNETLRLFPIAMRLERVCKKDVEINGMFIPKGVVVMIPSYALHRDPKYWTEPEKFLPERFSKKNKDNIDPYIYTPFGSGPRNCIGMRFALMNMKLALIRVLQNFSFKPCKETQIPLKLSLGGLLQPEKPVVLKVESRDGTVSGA
Chain of Paired box protein Pax-8 (Q06710 whole entry): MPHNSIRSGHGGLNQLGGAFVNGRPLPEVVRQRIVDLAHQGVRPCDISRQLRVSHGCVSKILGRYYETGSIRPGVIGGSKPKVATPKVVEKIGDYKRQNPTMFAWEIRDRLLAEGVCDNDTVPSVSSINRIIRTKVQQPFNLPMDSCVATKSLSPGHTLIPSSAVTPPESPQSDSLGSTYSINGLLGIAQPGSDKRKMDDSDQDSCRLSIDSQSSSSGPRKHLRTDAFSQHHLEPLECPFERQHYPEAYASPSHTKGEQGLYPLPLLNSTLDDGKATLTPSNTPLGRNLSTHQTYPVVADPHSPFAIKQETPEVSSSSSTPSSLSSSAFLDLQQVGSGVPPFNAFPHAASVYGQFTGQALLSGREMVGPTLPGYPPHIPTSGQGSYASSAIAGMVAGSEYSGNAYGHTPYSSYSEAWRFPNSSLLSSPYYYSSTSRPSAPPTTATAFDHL

## COc1ccc(-c2cc(-c3ccccc3)n3ncnc3n2)cc1
Kallikrein-7
  EC50: > 69.5 µM (inactive)
[1]
  EC50: > 7.72 µM (active)

## O=C(COC(=O)c1cccc(O)c1)Nc1ccc(Cl)cc1C(=O)c1ccccc1
[2]
  IC50: 17.9 µM (not active)
[3]
  AC50: 32.3 µM (active)
[4]
  AC50: > 52 µM (inactive)
[5]
  AC50: > 52 µM (inactive)

## Cc1cc(CSc2ccccc2)ccc1NC(=O)c1ccc(CN2CCOCC2)cc1
Jurkat
  IC50: > 80 µM (inactive)
[6]
  IC50: > 80 µM (inactive)
[7]
  AC50: 2.17 µM (active)
Galanin receptor type 3
  IC50: 0.322 µM (active)
Cells [8]
  EC50: > 29.9 µM (inactive)
[9]
  AC50: 7.59 µM (active)
[10]
  AC50: 1.75 µM (active)
[11]
  AC50: 5.87 µM (active)

## O=C(Nc1nc2n(n1)C(c1ccccc1)CC(c1ccc(Cl)cc1)N2)c1ccco1 (configuration not stated)
[12]
  IC50: 18.7 µM (active)

## Cc1ccc(-c2csc(N3CCC(NS(=O)(=O)c4ccc5c(c4)OCCO5)CC3)n2)cc1
INS1
  AC50: 5.51 µM (active)
[13]
  AC50: 2.15 µM (active)
[14]
  AC50: > 70 µM (inactive)
[15]
  AC50: 15 µM (active)
[16]
  AC50: 3.03 µM (active)
[17]
  AC50: 21.6 µM (active)
Cytochrome P450 3A4
  AC50: inconclusive

## Nc1nc(Nc2ccccc2)nc2ccccc12
[18]
  EC50: 1.25 µM (active)
[19]
  EC50: 2.06 µM (active)
[20]
  AC50: 4.92 µM (active)
Cells [21]
  IC50: > 29.9 µM (inactive)
[22]
  EC50: 0.16 µM (active)
[23]
  IC50: 0.444 µM (active)
Cells [24]
  EC50: > 29.9 µM (inactive)
[25]
  AC50: 26 µM (active)

## COc1ccc(-c2cc(C(F)(F)F)nc(S(=O)(=O)CCCC(=O)Nc3cc(C)on3)n2)cc1OC
Cells [26]
  EC50: > 350 µM (not active)
Cells [27]
  EC50: > 350 µM (not active)
[28]
  AC50: 13.7 µM (active)
Paired box protein Pax-8
  AC50: 9.94 µM (active)
[29]
  AC50: 21.2 µM (active)
[30]
  AC50: 29.4 µM (active)
[31]
  AC50: 20.7 µM (active)
[32]
  AC50: 13.4 µM (active)
[33]
  AC50: 27.7 µM (active)
[34]
  AC50: 15.2 µM (active)
[35]
  AC50: 30.1 µM (active)
[36]
  AC50: 23.1 µM (active)
[37]
  AC50: 16.2 µM (active)

## N#C/C(=C\c1ccco1)C(=O)Nc1cccc2ncccc12
Cells [38]
  AC50: > 52 µM (inactive)

## COc1ccccc1C(=O)Nc1ccc2c(c1)C(=O)N(C)C[C@H](OC)[C@@H](C)CN(CC1CC1)[C@@H](C)CO2
HeLa
  AC50: > 52 µM (inactive)
HEK293
  AC50: 24.1 µM (active)
[39]
  AC50: 24.1 µM (active)

From ChEMBL document CHEMBL1201862, “PubChem BioAssay data set” (2004)
